Experimental data taken from ChEMBL document CHEMBL3885881, “DrugMatrix”.

Organism: Rattus norvegicus
Experiment: DrugMatrix - Regimen: Daily Repeat
Format: toxicity, organism-based, Sprague-Dawley
Parameters: regimen Daily Repeat, gender Male, age 6-8 weeks
Settings: in vivo, po, route oral GAVAGE, vehicle 100 % WATER; for ABSOLUTE BASOPHIL / ABSOLUTE EOSINOPHIL / ABSOLUTE LYMPHOCYTE / ABSOLUTE MONOCYTE / ABSOLUTE SEGMENTED NEUTROPHIL / BASOPHIL / EOSINOPHIL / ERYTHROCYTE COUNT / HEMATOCRIT / HEMOGLOBIN / LEUKOCYTE COUNT / LYMPHOCYTE / MEAN CORPUSCULAR HEMOGLOBIN / MEAN CORPUSCULAR HEMOGLOBIN CONCENTRATION / MEAN CORPUSCULAR VOLUME / MONOCYTE / NEUTROPHIL / NUCLEATED RED BLOOD CELLS / PLATELET COUNT: tissue Blood; for ALANINE AMINOTRANSFERASE / ALBUMIN / ALKALINE PHOSPHATASE / ASPARTATE AMINOTRANSFERASE / BLOOD UREA NITROGEN / CARBON DIOXIDE / CHLORIDE / CHOLESTEROL / CREATINE PHOSPHOKINASE / CREATININE / GLUCOSE / LACTATE DEHYDROGENASE / LIPASE / PHOSPHORUS / POTASSIUM / SODIUM / TOTAL BILIRUBIN / TOTAL PROTEIN / URIC ACID: tissue Plasma
[1] = 14 mg/kg, 72 h, dose level Low, time 3 day
[2] = 14 mg/kg, 120 h, dose level Low, time 5 day
[3] = 1500 mg/kg, 72 h, dose level High, time 3 day
[4] = 1500 mg/kg, 120 h, dose level High, time 5 day

CN(C)[C@@H]1C(O)=C(C(N)=O)C(=O)[C@@]2(O)C(O)=C3C(=O)c4c(O)cccc4[C@@](C)(O)[C@H]3[C@H](O)[C@@H]12 [OXYTETRACYCLINE]
ABSOLUTE BASOPHIL [1]: 0 CELLS/uL
ABSOLUTE EOSINOPHIL [1]: 0 CELLS/uL
ABSOLUTE LYMPHOCYTE [1]: 14072 CELLS/uL
ABSOLUTE MONOCYTE [1]: 56.33 CELLS/uL
ABSOLUTE SEGMENTED NEUTROPHIL [1]: 1938.33 CELLS/uL
BASOPHIL [1]: 0%
EOSINOPHIL [1]: 0%
ERYTHROCYTE COUNT [1]: 5.7 x10E6/uL
HEMATOCRIT [1]: 36.73%
HEMOGLOBIN [1]: 14.4 G/DL
LEUKOCYTE COUNT [1]: 16.07 x10E3/uL
LYMPHOCYTE [1]: 87.67%
MEAN CORPUSCULAR HEMOGLOBIN [1]: 25.27 pg
MEAN CORPUSCULAR HEMOGLOBIN CONCENTRATION [1]: 39.27 G/DL
MEAN CORPUSCULAR VOLUME [1]: 64.4 fL
MONOCYTE [1]: 0.33%
NEUTROPHIL [1]: 12%
NUCLEATED RED BLOOD CELLS [1]: 0.33 /100WBC
PLATELET COUNT [1]: 1430 x10E3/uL
ALANINE AMINOTRANSFERASE [1]: 53.67 u/L
ALBUMIN [1]: 4.57 G/DL
ALKALINE PHOSPHATASE [1]: 372 u/L
ASPARTATE AMINOTRANSFERASE [1]: 89.33 u/L
BLOOD UREA NITROGEN [1]: 16.33 mg/dL
CARBON DIOXIDE [1]: 26.67 mmol/L
CHLORIDE [1]: 103.67 MEQ/L
CHOLESTEROL [1]: 85.33 mg/dL
CREATINE PHOSPHOKINASE [1]: 211.67 u/L
CREATININE [1]: 0.27 mg/dL
GLUCOSE [1]: 165 mg/dL
LACTATE DEHYDROGENASE [1]: 160 u/L
LIPASE [1]: 10 u/L
PHOSPHORUS [1]: 13.07 mg/dL
POTASSIUM [1]: 7.37 MEQ/L
SODIUM [1]: 146.77 MEQ/L
TOTAL BILIRUBIN [1]: 0.23 mg/dL
TOTAL PROTEIN [1]: 6.17 G/DL
URIC ACID [1]: 1.9 mg/dL
ABSOLUTE BASOPHIL [2]: 0 CELLS/uL
ABSOLUTE EOSINOPHIL [2]: 0 CELLS/uL
ABSOLUTE LYMPHOCYTE [2]: 12168.33 CELLS/uL
ABSOLUTE MONOCYTE [2]: 40 CELLS/uL
ABSOLUTE SEGMENTED NEUTROPHIL [2]: 991.67 CELLS/uL
BASOPHIL [2]: 0%
EOSINOPHIL [2]: 0%
ERYTHROCYTE COUNT [2]: 5.46 x10E6/uL
HEMATOCRIT [2]: 35.43%
HEMOGLOBIN [2]: 14.23 G/DL
LEUKOCYTE COUNT [2]: 13.2 x10E3/uL
LYMPHOCYTE [2]: 92%
MEAN CORPUSCULAR HEMOGLOBIN [2]: 26.03 pg
MEAN CORPUSCULAR HEMOGLOBIN CONCENTRATION [2]: 40.13 G/DL
MEAN CORPUSCULAR VOLUME [2]: 64.83 fL
MONOCYTE [2]: 0.33%
NEUTROPHIL [2]: 7.67%
NUCLEATED RED BLOOD CELLS [2]: 0 /100WBC
PLATELET COUNT [2]: 1202.33 x10E3/uL
ALANINE AMINOTRANSFERASE [2]: 48.67 u/L
ALBUMIN [2]: 4.47 G/DL
ALKALINE PHOSPHATASE [2]: 399.33 u/L
ASPARTATE AMINOTRANSFERASE [2]: 88 u/L
BLOOD UREA NITROGEN [2]: 16.67 mg/dL
CARBON DIOXIDE [2]: 26.33 mmol/L
CHLORIDE [2]: 102 MEQ/L
CHOLESTEROL [2]: 69.33 mg/dL
CREATINE PHOSPHOKINASE [2]: 216.67 u/L
CREATININE [2]: 0.2 mg/dL
GLUCOSE [2]: 150.33 mg/dL
LACTATE DEHYDROGENASE [2]: 200.67 u/L
LIPASE [2]: 9 u/L
PHOSPHORUS [2]: 14.23 mg/dL
POTASSIUM [2]: 7.61 MEQ/L
SODIUM [2]: 147.57 MEQ/L
TOTAL BILIRUBIN [2]: 0.17 mg/dL
TOTAL PROTEIN [2]: 6.43 G/DL
URIC ACID [2]: 2.1 mg/dL
ABSOLUTE BASOPHIL [3]: 0 CELLS/uL
ABSOLUTE EOSINOPHIL [3]: 0 CELLS/uL
ABSOLUTE LYMPHOCYTE [3]: 13408.67 CELLS/uL
ABSOLUTE MONOCYTE [3]: 33.33 CELLS/uL
ABSOLUTE SEGMENTED NEUTROPHIL [3]: 1491.33 CELLS/uL
BASOPHIL [3]: 0%
EOSINOPHIL [3]: 0%
ERYTHROCYTE COUNT [3]: 5.4 x10E6/uL
HEMATOCRIT [3]: 33.33%
HEMOGLOBIN [3]: 13.33 G/DL
LEUKOCYTE COUNT [3]: 14.93 x10E3/uL
LYMPHOCYTE [3]: 90.67%
MEAN CORPUSCULAR HEMOGLOBIN [3]: 24.7 pg
MEAN CORPUSCULAR HEMOGLOBIN CONCENTRATION [3]: 40.03 G/DL
MEAN CORPUSCULAR VOLUME [3]: 61.67 fL
MONOCYTE [3]: 0.33%
NEUTROPHIL [3]: 9%
NUCLEATED RED BLOOD CELLS [3]: 0 /100WBC
PLATELET COUNT [3]: 1276 x10E3/uL
ALANINE AMINOTRANSFERASE [3]: 67 u/L
ALBUMIN [3]: 4.17 G/DL
ALKALINE PHOSPHATASE [3]: 287.67 u/L
ASPARTATE AMINOTRANSFERASE [3]: 90.33 u/L
BLOOD UREA NITROGEN [3]: 14 mg/dL
CARBON DIOXIDE [3]: 30 mmol/L
CHLORIDE [3]: 103 MEQ/L
CHOLESTEROL [3]: 93 mg/dL
CREATINE PHOSPHOKINASE [3]: 208.33 u/L
CREATININE [3]: 0.2 mg/dL
GLUCOSE [3]: 142.33 mg/dL
LACTATE DEHYDROGENASE [3]: 267.67 u/L
LIPASE [3]: 10 u/L
PHOSPHORUS [3]: 13.33 mg/dL
POTASSIUM [3]: 6.65 MEQ/L
SODIUM [3]: 147.53 MEQ/L
TOTAL BILIRUBIN [3]: 0.1 mg/dL
TOTAL PROTEIN [3]: 5.63 G/DL
URIC ACID [3]: 1.47 mg/dL
ABSOLUTE BASOPHIL [4]: 0 CELLS/uL
ABSOLUTE EOSINOPHIL [4]: 0 CELLS/uL
ABSOLUTE LYMPHOCYTE [4]: 10152.67 CELLS/uL
ABSOLUTE MONOCYTE [4]: 25.33 CELLS/uL
ABSOLUTE SEGMENTED NEUTROPHIL [4]: 755.33 CELLS/uL
BASOPHIL [4]: 0%
EOSINOPHIL [4]: 0%
ERYTHROCYTE COUNT [4]: 5.33 x10E6/uL
HEMATOCRIT [4]: 34.37%
HEMOGLOBIN [4]: 13.93 G/DL
LEUKOCYTE COUNT [4]: 10.93 x10E3/uL
LYMPHOCYTE [4]: 92.33%
MEAN CORPUSCULAR HEMOGLOBIN [4]: 26.17 pg
MEAN CORPUSCULAR HEMOGLOBIN CONCENTRATION [4]: 40.53 G/DL
MEAN CORPUSCULAR VOLUME [4]: 64.53 fL
MONOCYTE [4]: 0.33%
NEUTROPHIL [4]: 7.33%
NUCLEATED RED BLOOD CELLS [4]: 0.33 /100WBC
PLATELET COUNT [4]: 1197.33 x10E3/uL
ALANINE AMINOTRANSFERASE [4]: 58 u/L
ALBUMIN [4]: 4.37 G/DL
ALKALINE PHOSPHATASE [4]: 321.33 u/L
ASPARTATE AMINOTRANSFERASE [4]: 83.33 u/L
BLOOD UREA NITROGEN [4]: 16 mg/dL
CARBON DIOXIDE [4]: 26.33 mmol/L
CHLORIDE [4]: 100.33 MEQ/L
CHOLESTEROL [4]: 75.67 mg/dL
CREATINE PHOSPHOKINASE [4]: 222.33 u/L
CREATININE [4]: 0.32 mg/dL
GLUCOSE [4]: 138 mg/dL
LACTATE DEHYDROGENASE [4]: 303 u/L
LIPASE [4]: 11 u/L
PHOSPHORUS [4]: 13.23 mg/dL
POTASSIUM [4]: 6.84 MEQ/L
SODIUM [4]: 146.1 MEQ/L
TOTAL BILIRUBIN [4]: 0.1 mg/dL
TOTAL PROTEIN [4]: 6.3 G/DL
URIC ACID [4]: 1.47 mg/dL
